Assay results reported in ChEMBL document CHEMBL4680133, “Novel nitroimidazole derivatives evaluated for their trypanocidal, cytotoxic, and genotoxic activities” (Eur J Med Chem, 2020).

Key:
[1] = Mutagenicity in Salmonella typhimurium TA97 assessed as revertant/ug measured after 20 mins in presence of S9 fraction by microsome assay; assay type: toxicity, subcellular; settings: salmonella enterica subsp. enterica serovar typhimurium, s9, 20 min
[2] = Mutagenicity in Salmonella typhimurium TA97 assessed as revertant/ug measured after 20 mins in absence of S9 fraction by microsome assay; assay type: toxicity; settings: salmonella enterica subsp. enterica serovar typhimurium, microsomes
[3] = Mutagenicity in Salmonella typhimurium TA100 assessed as revertant/ug measured after 20 mins in presence of S9 fraction by microsome assay; assay type: toxicity, subcellular; settings: salmonella enterica subsp. enterica serovar typhimurium, s9, 20 min
[4] = Mutagenicity in Salmonella typhimurium TA100 assessed as revertant/ug measured after 20 mins in absence of S9 fraction by microsome assay; assay type: toxicity; settings: salmonella enterica subsp. enterica serovar typhimurium, microsomes
[5] = Genotoxicity in human HepG2 assessed as survival at 100 ug/ml measured after 24 hrs by micronucleus test (reference value: 100%); assay type: toxicity, cell-based; settings: HepG2 cells, at 100 µg/mL, read-out: Survival
[6] = test system: HepG2; experiment: Genotoxicity in human HepG2 assessed as number of micronucleated cells at 100 ug/ml measured after 24 hrs by micronucleus test (reference value: 14 to 18); assay type: toxicity, cell-based; settings: hepg2, 24 h, dose 100 µg/ml
[7] = test system: HepG2; experiment: Genotoxicity in human HepG2 assessed as mitotic index at 100 ug/ml measured after 24 hrs by micronucleus test (reference value: 61 to 108); assay type: toxicity, cell-based; settings: hepg2, 24 h, dose 100 µg/ml
[8] = test system: Trypanosoma cruzi; experiment: Antitrypanosomal activity against bloodstream form of Trypanosoma cruzi Y trypomastigotes infected in African green monkey Vero cells assessed as increase in parasite lysis measured after 24 hrs by Neubauer chamber method; assay type: functional, organism-based
[9] = Cytotoxicity against mouse RAW264.7 cells assessed as reduction in cell viability measured after 24 hrs by WST1 assay; assay type: cell-based
[10] = Selectivity index, ratio of GI50 for mouse RAW264.7 cells assessed as reduction in cell viability measured after 24 hrs by WST1 assay to IC50 for antitrypanosomal activity against Trypanosoma cruzi Y axenic amastigotes infected in African green monkey Vero cells; assay type: toxicity; settings: read-out: Selectivity Index
[11] = Cytotoxicity against human HepG2 cells assessed as reduction in cell viability measured after 24 hrs by WST1 assay; assay type: cell-based
[12] = Selectivity index, ratio of GI50 for mouse RAW264.7 cells assessed as reduction in cell viability measured after 24 hrs by WST1 assay to IC50 for antitrypanosomal activity against bloodstream form of Trypanosoma cruzi Y trypomastigotes infected in African green monkey Vero cells; assay type: toxicity; settings: read-out: Selectivity Index
[13] = Selectivity index, ratio of GI50 for human HepG2 cells assessed as reduction in cell viability measured after 24 hrs by WST1 assay to IC50 for antitrypanosomal activity against bloodstream form of Trypanosoma cruzi Y trypomastigotes infected in African green monkey Vero cells; assay type: toxicity; settings: read-out: Selectivity Index
[14] = test system: Trypanosoma cruzi; experiment: Antitrypanosomal activity against Trypanosoma cruzi Y axenic amastigotes infected in African green monkey Vero cells after 24 hrs by MTT assay; assay type: functional, organism-based
[15] = Selectivity index, ratio of GI50 for human HepG2 cells assessed as reduction in cell viability measured after 24 hrs by WST1 assay to IC50 for antitrypanosomal activity against Trypanosoma cruzi Y axenic amastigotes infected in African green monkey Vero cells; assay type: toxicity; settings: read-out: Selectivity Index

Question: Which Activity [1] does the source give for `Cn1cnc([N+](=O)[O-])c1-n1cccn1` here?
Answer: Its Activity is “Non-Toxic”.

Question: What about the Activity [2] of the same compound?
Answer: The Activity was 11.5 revertants/µg.

Question: And the Activity [3]?
Answer: Its Activity is 35.5 revertants/µg.

Question: What about the Activity [4] of the same compound?
Answer: Its Activity is 65.5 revertants/µg.

Question: With `c1ccc2c(c1)cc1ccc3cccc4ccc2c1c34` [BENZO[DEF]CHRYSENE] as the compound, how does the viability at 24 h, 100 ug/ml [5] read?
Answer: Its viability at 24 h, 100 ug/ml is 99%.

Question: And the Activity [6]?
Answer: Its Activity is 31.

Question: What about the Activity_index [7] of the same compound?
Answer: The Activity_index was 57.

Question: For `CCCCCc1cn(-c2c([N+](=O)[O-])ncn2C)nn1`, which IC50 [8] is on record?
Answer: Its IC50 is 54.3 µM.

Question: With `Cn1cnc([N+](=O)[O-])c1-n1cc(-c2cccc(N)c2)nn1` as the compound, how does the IC50 [8] read?
Answer: The IC50 was 41.2 µM.

Question: For `O=C(Cn1ccnc1[N+](=O)[O-])NCc1ccccc1` [BENZNIDAZOLE], which GI50 at 24 h [9] is on record?
Answer: Its GI50 at 24 h is over 500 µM.

Question: And the IC50 [8]?
Answer: Its IC50 is 8.8 µM.

Question: What about the selectivity ratio at 24 h [10] of the same compound?
Answer: The selectivity ratio at 24 h was over 57.

Question: What about the GI50 at 24 h [11] of the same compound?
Answer: Its GI50 at 24 h is over 500 µM.

Question: What about the selectivity ratio at 24 h [12] of the same compound?
Answer: Its selectivity ratio at 24 h is over 56.

Question: And the selectivity ratio at 24 h [13]?
Answer: The selectivity ratio at 24 h was over 56.

Question: And the IC50 [14]?
Answer: The IC50 was 8.7 µM.

Question: What about the selectivity ratio at 24 h [15] of the same compound?
Answer: The selectivity ratio at 24 h was over 57.
